# System: Gram-positive and Gram-negative bacteria
# Assay: In vitro antibacterial assay, pooled statement over all tested strains
# Type: cell-based, S. aureus, B. subtilis, S. typhi, E. coli
structure (smiles),measurement,value
"O=c1c(O)c(-c2ccc(O)c(O)c2)oc2cc(O)cc(O)c12 [Compound 1, quercetin]",MIC,0.0692 to 0.151 µM
"O=c1c(O)c(-c2ccc(O)cc2)oc2cc(O)cc(O)c12 [Compound 3, kaempferol]",MIC,> 100 µg/mL
